ChEMBL document CHEMBL3046966, “Structure and Fungicidal Activities of 2-Methoxyimino-N-methyl-2-[2-(substituted pyridyloxymethyl)phenyl]acetamide Derivatives” (1998)

Experiments:
Type in all cases: functional
Podosphaera fuliginea [1] = test: Fungicidal activity against Podosphaera fuligineas assessed as cucumber […] mildew disease control at 7.8 ppm foliar application 24 hr before inoculation by preventive manner
[2] = tested on: Blumeria graminis f. sp. tritici; test: Fungicidal activity against Blumeria graminis f. sp. tritici assessed as wheat powdery mildew disease control at 7.8 ppm foliar application for 24 hr after inoculation by curative manner
Botrytis cinerea [3] = test: Fungicidal activity against Botryotinia fuckeliana assessed as cucumber gray mold disease control at 7.8 ppm foliar application 24 hr after inoculation by curative manner
Podosphaera fuliginea [4] = test: Fungicidal activity against Podosphaera fuligineas assessed as cucumber […] mildew disease control at 7.8 ppm foliar application 24 hr after inoculation by curative manner
Botrytis cinerea [5] = test: Fungicidal activity against Botryotinia fuckeliana assessed as cucumber gray mold disease control at 7.8 ppm foliar application 24 hr before inoculation by preventive manner
Pyricularia oryzae [6] = test: Fungicidal activity against Magnaporthe oryzae assessed as rice blast disease control at 31.3 ppm foliar application for 24 hr before inoculation by preventive manner
[7] = tested on: Pseudoperonospora cubensis; test: Fungicidal activity against Pseudoperonospora cubensis assessed as cucumber downy mildew disease control at 2 ppm foliar application 24 hr after inoculation by curative manner
Pyricularia oryzae [8] = test: Fungicidal activity against Magnaporthe oryzae assessed as rice blast disease control at 31.3 ppm foliar application for 24 hr after inoculation by curative manner
[9] = tested on: Blumeria graminis f. sp. tritici; test: Fungicidal activity against Blumeria graminis f. sp. tritici assessed as wheat powdery mildew disease control at 2 ppm foliar application for 24 hr before inoculation by preventive manner
[10] = tested on: Pseudoperonospora cubensis; test: Fungicidal activity against Pseudoperonospora cubensis assessed as cucumber downy mildew disease control at 31.3 ppm foliar application 24 hr after inoculation by preventive manner
Pyricularia oryzae [11] = test: Fungicidal activity against Magnaporthe oryzae assessed as rice blast disease control at 7.8 ppm foliar application for 24 hr after inoculation by curative manner
Botrytis cinerea [12] = test: Fungicidal activity against Botryotinia fuckeliana assessed as cucumber gray mold disease control at 31.3 ppm foliar application 24 hr before inoculation by preventive manner
Podosphaera fuliginea [13] = test: Fungicidal activity against Podosphaera fuligineas assessed as cucumber […] mildew disease control at 31.3 ppm foliar application 24 hr before inoculation by preventive manner
[14] = tested on: Pseudoperonospora cubensis; test: Fungicidal activity against Pseudoperonospora cubensis assessed as cucumber downy mildew disease control at 125 ppm foliar application 24 hr after inoculation by preventive manner
[15] = tested on: Blumeria graminis f. sp. tritici; test: Fungicidal activity against Blumeria graminis f. sp. tritici assessed as wheat powdery mildew disease control at 31.3 ppm foliar application for 24 hr after inoculation by curative manner
[16] = tested on: Pseudoperonospora cubensis; test: Fungicidal activity against Pseudoperonospora cubensis assessed as cucumber downy mildew disease control at 7.8 ppm foliar application 24 hr after inoculation by curative manner
Botrytis cinerea [17] = test: Fungicidal activity against Botryotinia fuckeliana assessed as cucumber gray mold disease control at 125 ppm foliar application 24 hr after inoculation by curative manner
Botrytis cinerea [18] = test: Fungicidal activity against Botryotinia fuckeliana assessed as cucumber gray mold disease control at 125 ppm foliar application 24 hr before inoculation by preventive manner
Podosphaera fuliginea [19] = test: Fungicidal activity against Podosphaera fuligineas assessed as cucumber […] mildew disease control at 125 ppm foliar application 24 hr after inoculation by curative manner
Podosphaera fuliginea [20] = test: Fungicidal activity against Podosphaera fuligineas assessed as cucumber […] mildew disease control at 125 ppm foliar application 24 hr before inoculation by preventive manner
[21] = tested on: Blumeria graminis f. sp. tritici; test: Fungicidal activity against Blumeria graminis f. sp. tritici assessed as wheat powdery mildew disease control at 125 ppm foliar application for 24 hr before inoculation by preventive manner
[22] = tested on: Blumeria graminis f. sp. tritici; test: Fungicidal activity against Blumeria graminis f. sp. tritici assessed as wheat powdery mildew disease control at 7.8 ppm foliar application for 24 hr before inoculation by preventive manner
Botrytis cinerea [23] = test: Fungicidal activity against Botryotinia fuckeliana assessed as cucumber gray mold disease control at 2 ppm foliar application 24 hr after inoculation by curative manner
[24] = tested on: Pseudoperonospora cubensis; test: Fungicidal activity against Pseudoperonospora cubensis assessed as cucumber downy mildew disease control at 31.3 ppm foliar application 24 hr after inoculation by curative manner
[25] = tested on: Blumeria graminis f. sp. tritici; test: Fungicidal activity against Blumeria graminis f. sp. tritici assessed as wheat powdery mildew disease control at 31.3 ppm foliar application for 24 hr before inoculation by preventive manner
[26] = tested on: Blumeria graminis f. sp. tritici; test: Fungicidal activity against Blumeria graminis f. sp. tritici assessed as wheat powdery mildew disease control at 125 ppm foliar application for 24 hr after inoculation by curative manner
Podosphaera fuliginea [27] = test: Fungicidal activity against Podosphaera fuligineas assessed as cucumber […] mildew disease control at 31.3 ppm foliar application 24 hr after inoculation by curative manner
Pyricularia oryzae [28] = test: Fungicidal activity against Magnaporthe oryzae assessed as rice blast disease control at 125 ppm foliar application for 24 hr before inoculation by preventive manner
Pyricularia oryzae [29] = test: Fungicidal activity against Magnaporthe oryzae assessed as rice blast disease control at 125 ppm foliar application for 24 hr after inoculation by curative manner
Pyricularia oryzae [30] = test: Fungicidal activity against Magnaporthe oryzae assessed as rice blast disease control at 7.8 ppm foliar application for 24 hr before inoculation by preventive manner
Podosphaera fuliginea [31] = test: Fungicidal activity against Podosphaera fuligineas assessed as cucumber […] mildew disease control at 2 ppm foliar application 24 hr after inoculation by curative manner
Podosphaera fuliginea [32] = test: Fungicidal activity against Podosphaera fuligineas assessed as cucumber […] mildew disease control at 2 ppm foliar application 24 hr before inoculation by preventive manner
[33] = tested on: Pseudoperonospora cubensis; test: Fungicidal activity against Pseudoperonospora cubensis assessed as cucumber downy mildew disease control at 125 ppm foliar application 24 hr after inoculation by curative manner

Row | SMILES | Activity [2] [%] | Activity (Podosphaera fuliginea [4]) [%] | Activity (Pyricularia oryzae [6]) [%] | Activity (Pyricularia oryzae [8]) [%] | Activity [14] [%] | Activity [16] [%] | Activity (Botrytis cinerea [17]) [%] | Activity (Botrytis cinerea [18]) [%] | Activity [21] [%] | Activity [26] [%] | Activity (Pyricularia oryzae [28]) [%] | other results
1 | CNC(=O)/C(=N/OC)c1ccccc1COc1cccc(Cl)n1 | 90 | 90 | 90 | 90 |  |  |  |  |  |  |  | Activity (Podosphaera fuliginea [1]): 90%; Activity (Botrytis cinerea [3]): 90%; Activity (Botrytis cinerea [5]): 90%; Activity [7]: 90%; Activity [9]: 90%; Activity [10]: 90%
2 | CNC(=O)/C(=N/OC)c1ccccc1COc1cccc(Br)n1 |  | 90 | 90 |  | 90 | 90 |  |  |  |  |  | Activity (Botrytis cinerea [3]): 90%; Activity (Pyricularia oryzae [11]): 90%; Activity (Botrytis cinerea [12]): 90%; Activity (Podosphaera fuliginea [13]): 90%; Activity [15]: 90%; Activity [9]: 90%
3 | CNC(=O)/C(=N/OC)c1ccccc1COc1cc(C(F)(F)F)ccn1 |  |  | 90 | 90 | <90 | 90 | <90 | <90 | 90 |  |  | Activity (Podosphaera fuliginea [19]): 90%; Activity (Podosphaera fuliginea [20]): 90%; Activity [15]: 90%
4 | CNC(=O)/C(=N/OC)c1ccccc1COc1ccc(C(F)(F)F)cn1 | 90 | 90 | 90 | 90 |  | 90 |  |  |  |  |  | Activity (Podosphaera fuliginea [13]): 90%; Activity (Botrytis cinerea [5]): 90%; Activity [22]: 90%; Activity (Botrytis cinerea [23]): 90%; Activity [10]: 90%
5 | CNC(=O)/C(=N/OC)c1ccccc1COc1cccc(C(F)(F)F)n1 | 90 | 90 | 90 |  |  |  | 90 |  |  |  |  | Activity (Podosphaera fuliginea [1]): 90%; Activity (Pyricularia oryzae [11]): 90%; Activity (Botrytis cinerea [12]): 90%; Activity [7]: 90%; Activity [9]: 90%; Activity [10]: 90%
6 | CNC(=O)/C(=N/OC)c1ccccc1COc1cccc(OC)n1 | 90 | 90 | 90 | 90 | 90 |  | 90 | 90 |  |  |  | Activity (Podosphaera fuliginea [1]): 90%; Activity [24]: 90%; Activity [25]: 90%; Activity [7]: 90%
7 | CNC(=O)/C(=N/OC)c1ccccc1COc1cccc(SC)n1 |  |  |  |  | 90 | 90 | <90 | 90 | 90 | <90 | <90 | Activity (Podosphaera fuliginea [13]): 90%; Activity (Podosphaera fuliginea [27]): 90%
8 | CNC(=O)/C(=N/OC)c1ccccc1COc1cccc(OC(C)C)n1 |  |  | 90 | 90 | <90 |  | <90 | 90 | 90 | 90 |  | Activity [24]: 90%; Activity (Podosphaera fuliginea [13]): 90%; Activity (Podosphaera fuliginea [27]): 90%
9 | CNC(=O)/C(=N/OC)c1ccccc1COc1cc(C(F)(F)F)cc(Cl)n1 |  |  |  |  | <90 | 90 | <90 | <90 | 90 | 90 | 90 | Activity (Pyricularia oryzae [29]): <90%; Activity (Podosphaera fuliginea [19]): 90%; Activity (Podosphaera fuliginea [20]): 90%
10 | CNC(=O)/C(=N/OC)c1ccccc1COc1ccc(C(F)(F)F)c(Cl)n1 | 90 |  |  |  |  |  |  |  |  |  |  | Activity (Botrytis cinerea [3]): 90%; Activity (Pyricularia oryzae [11]): 90%; Activity (Podosphaera fuliginea [13]): 90%; Activity (Botrytis cinerea [5]): 90%; Activity [22]: 90%; Activity [7]: 90%; Activity (Pyricularia oryzae [30]): 90%; Activity (Podosphaera fuliginea [31]): 90%; Activity [10]: 90%
11 | CNC(=O)/C(=N/OC)c1ccccc1COc1nc(OC)ccc1C(F)(F)F |  |  |  |  | 90 | 90 | <90 |  |  | 90 | 90 | Activity (Podosphaera fuliginea [32]): 90%; Activity [25]: 90%; Activity (Pyricularia oryzae [29]): 90%; Activity (Botrytis cinerea [12]): 90%; Activity (Podosphaera fuliginea [31]): 90%
12 | CNC(=O)/C(=N/OC)c1ccccc1COc1nc(OC(C)C)ccc1C(F)(F)F |  | 90 | 90 | 90 | <90 | 90 | <90 | 90 |  |  |  | Activity (Podosphaera fuliginea [1]): 90%; Activity [22]: 90%; Activity [15]: 90%
13 | CNC(=O)/C(=N/OC)c1ccccc1COc1ccc(C(F)(F)F)c(OC)n1 | 90 |  |  |  |  |  | 90 |  | 90 |  | 90 | Activity (Podosphaera fuliginea [32]): 90%; Activity (Pyricularia oryzae [29]): 90%; Activity (Botrytis cinerea [5]): 90%; Activity [7]: 90%; Activity (Podosphaera fuliginea [31]): 90%; Activity [10]: 90%
14 | CNC(=O)/C(=N/OC)c1ccccc1COc1ccc(C(F)(F)F)c(NC)n1 |  | 90 |  |  | 90 | 90 | 90 | 90 |  | 90 | <90 | Activity (Podosphaera fuliginea [1]): 90%; Activity (Pyricularia oryzae [29]): <90%
15 | CNC(=O)/C(=N/OC)c1ccccc1COc1nc(Cl)c(C(F)(F)F)cc1C(F)(F)F | 90 | 90 |  |  |  |  | 90 |  |  |  | 90 | Activity [33]: <90%; Activity (Podosphaera fuliginea [32]): 90%; Activity (Pyricularia oryzae [29]): <90%; Activity (Botrytis cinerea [12]): 90%; Activity [7]: 90%; Activity [9]: 90%
16 | CNC(=O)/C(=N/OC)c1ccccc1COc1nc(Cl)c(Cl)c(C(F)(F)F)c1Cl |  |  |  |  |  |  | <90 |  | <90 | <90 | <90 | Activity [33]: 90%; Activity (Podosphaera fuliginea [19]): 90%; Activity (Podosphaera fuliginea [20]): 90%
17 | CNC(=O)/C(=N/OC)c1ccccc1COc1cccnc1Cl |  |  |  |  |  |  |  |  | <90 | <90 | <90 | Activity [33]: 90%; Activity (Botrytis cinerea [3]): 90%; Activity (Botrytis cinerea [12]): 90%; Activity (Podosphaera fuliginea [13]): 90%; Activity (Botrytis cinerea [5]): 90%; Activity (Podosphaera fuliginea [27]): 90%
18 | CNC(=O)/C(=N/OC)c1ccccc1COc1cc(C(F)(F)F)nc(C(F)(F)F)c1 |  |  |  |  | <90 |  |  | <90 | <90 | <90 | <90 | Activity [33]: 90%; Activity (Podosphaera fuliginea [19]): <90%; Activity (Podosphaera fuliginea [20]): <90%
19 | CNC(=O)/C(=N\OC)c1ccccc1COc1ccccn1 |  |  |  |  |  |  |  | <90 | 90 | <90 | <90 | Activity [33]: <90%; Activity (Podosphaera fuliginea [19]): <90%; Activity (Podosphaera fuliginea [20]): <90%
20 | CNC(=O)/C(=N\OC)c1ccccc1COc1cccc(C(F)(F)F)n1 |  |  | 90 | 90 | 90 | 90 | <90 | 90 |  |  |  | Activity [25]: 90%; Activity (Podosphaera fuliginea [27]): 90%; Activity (Podosphaera fuliginea [20]): 90%; Activity [15]: 90%
21 | CNC(=O)/C(=N/OC)c1ccccc1COc1ncccc1Cl | 90 | 90 | 90 |  |  | 90 |  |  |  |  |  | Activity (Podosphaera fuliginea [1]): 90%; Activity (Pyricularia oryzae [11]): 90%; Activity (Botrytis cinerea [12]): 90%; Activity [22]: 90%; Activity (Botrytis cinerea [23]): 90%; Activity [10]: 90%
